Measurements taken from PubChem BioAssay (NCI).
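48-hour exposure; five concentrations; linearly interpolated endpoints. The concentration for 50% growth inhibition is given as GI50. TGI: concentration producing complete growth inhibition.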

How the values were obtained:
Test in all cases: inhibition of tumour cell growth, NCI panel, 48 h
HOP-92 NSCLC = test system: HOP-92 NSCLC
NCI-H23 lung = test system: NCI-H23 lung
DU-145 prostate = test system: DU-145 prostate
SK-MEL-2 melanoma = test system: SK-MEL-2 melanoma
SF-295 CNS = test system: SF-295 CNS
UACC-257 melanoma = test system: UACC-257 melanoma
OVCAR-3 ovarian = test system: OVCAR-3 ovarian
U251 CNS = test system: U251 CNS

Question: How did the GI50 (HOP-92 NSCLC) turn out when CCN(CC)CCCC(C)Nc1c2ccc(Cl)cc2nc2ccc(O)cc12 (stereo unspecified) was run?
Answer: 2.05 µM

Question: What about the TGI (HOP-92 NSCLC) of the same molecule?
Answer: 12 µM

Question: What about the GI50 (NCI-H23 lung) of the same molecule?
Answer: 3.18 µM

Question: What about the TGI (NCI-H23 lung) of the same molecule?
Answer: 13.6 µM

Question: What about the GI50 (DU-145 prostate) of the same molecule?
Answer: 2.26 µM

Question: What about the TGI (DU-145 prostate) of the same molecule?
Answer: 8.39 µM

Question: And the GI50 (SK-MEL-2 melanoma)?
Answer: 4.78 µM

Question: What about the TGI (SK-MEL-2 melanoma) of the same molecule?
Answer: 19.9 µM

Question: What about the GI50 (SF-295 CNS) of the same molecule?
Answer: 1.73 µM

Question: And the TGI (SF-295 CNS)?
Answer: 3.76 µM

Question: And the GI50 (UACC-257 melanoma)?
Answer: 1.7 µM

Question: What about the TGI (UACC-257 melanoma) of the same molecule?
Answer: 3.31 µM

Question: And the GI50 (OVCAR-3 ovarian)?
Answer: 2.05 µM

Question: And the TGI (OVCAR-3 ovarian)?
Answer: 5.93 µM

Question: What about the GI50 (U251 CNS) of the same molecule?
Answer: 2.49 µM

Question: And the TGI (U251 CNS)?
Answer: 11.4 µM
